The text below walks through data of US20250230138A1, “COMPOUNDS HAVING A T-STRUCTURE FORMED BY AT LEAST FOUR CYCLES FOR USE IN THE TREATMENT OF CANCER AND OTHER INDICATIONS” (TheRas, Inc., priority 2022, published 2025).

What is called IC50 is the concentration that inhibits the measured activity by half.

Assay [1] deals with Cys242 in human PIK3CA (157-299) (Homo sapiens (Human), UniProt P42336). The experiment in a line: Covalent modification assay using MALDI-TOF MS. Format: biochemical. As to conditions: 4 h reaction time point. The gist of the method:
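PIK3CA (157-299), 3.33 or 1 μM in 20 mM HEPES, 150 mM NaCl, 2 mM MgCl2, pH 7.3, was incubated with compound at room temperature in the dark for 15 min, 30 min, 2 h or 4 h. Linear MALDI-TOF read-out; % modification = adduct peak height over summed heights of all protein species.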

Another assay has as its system pAKT in BT474 cells. Kind of assay: Cell-based pAKT HTRF assay in BT474 cells. As to conditions: BT474 cells, 4 hr incubation, read-out: pAKT inhibition IC50 in BT474 cells. The method in brief: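 Treatment lasts 4 hr in DMEM/10% FBS at 0.25% DMSO over nine 3-fold dilutions from 3 μM. The lysate is then probed by HTRF.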
(In general: TR-FRET usually uses a lanthanide donor and a delayed reading to cut background.)

[2] abbreviates: 1 μM protein target, 1:5 protein to compound ratio (compounds 853-1279).
The mark [3] stands for this setting: 3.33 μM protein target, 1:7.5 protein to compound ratio (compounds 1-852).
Where [4] appears, read: Homo sapiens, BT-474, Compounds 10-999.

Read-outs that look alike come from different tables or passages of the source. Where only a bound is given, the exact number is not on record here.

Sequence of Cys242 in human PIK3CA (157-299) (P42336 157-299): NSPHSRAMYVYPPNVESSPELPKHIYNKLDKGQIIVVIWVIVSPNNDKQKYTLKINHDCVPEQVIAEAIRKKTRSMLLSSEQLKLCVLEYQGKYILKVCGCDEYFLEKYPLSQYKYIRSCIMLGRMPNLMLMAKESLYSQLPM

Consider `C=CC(=O)N1CCc2cc(-c3nc(-c4ccc5cn(C)nc5c4)c4ccsc4c3-c3c(F)cc(F)cc3OCCOC)nn2CC1` [Compound 1027], for which the “% of modification” value in assay [1] (setting [2]) is “A (percent of modification of PIK3CA protein ≥75%)”. Moreover, in the assay on pAKT in BT474 cells (Compounds 1000-1279), the IC50 is < 0.1 µM.
Consider `C=CC(=O)N1CC(n2cc(-c3nc(-c4ccc5c(c4)CNC(=O)C5)c4ccsc4c3-c3ccc(F)cc3OCCOC)cn2)C1` [Compound 72], for which the “% of modification” value in assay [1] (setting [3]) is on record as “A (percent of modification of PIK3CA protein ≥75%)”. For the same compound, the IC50 with pAKT in BT474 cells (Compounds 10-999) was < 0.1 µM.
On the same counts, the results for `C=CC(=O)N1CCn2nc(-c3nc(-c4cnn(C)c4)c4ccsc4c3-c3ccc(F)cc3OC(C)C)nc2C1` [Compound 225] are “A (percent of modification of PIK3CA protein ≥75%)” and < 0.1 µM.
`C=CC(=O)N1CCc2ccc(-c3nc(-c4ccc5c(c4)CNC5=O)c4ccsc4c3-c3c(F)cc(F)cc3OCCO)cc2C1` [Compound 950]: the “% of modification” value in assay [1] (setting [2]) is “D (percent of modification <25%)”. The IC50 in the assay on pAKT in BT474 cells (Compounds 10-999) lay within 0.1 to 1 µM.
Regarding `C=C(F)C(=O)N1CCn2nc(-c3nc(-c4ccc5c(c4)CCNC5=O)c4ccsc4c3-c3ccc(F)cc3OC(C)C)cc2C1` [Compound 258, 6-[7-(4-fluoro-2-isopropoxy-phenyl)-6-[5-(2-fluoroprop-2-enoyl)-6,7-dihydro-4H-pyrazolo[1,5-a]pyrazin-2-yl]thieno[3,2-c]pyridin-4-yl]-3,4-dihydro-2H-isoquinolin-1-one], the “% of modification” value in assay [1] (setting [3]) is recorded as “B (50%<percent of modification <75%)”. Moreover, in the assay on pAKT in BT474 cells (setting [4]), the IC50 is < 0.1 µM.
Turning to `C=CC(=O)N1CC(n2cc(-c3nc(N4CCC5(CC4)CS(=O)(=O)C5)c4ccsc4c3-c3ccc(F)cc3OCCOC)cn2)C1` [Compound 149], the “% of modification” value in assay [1] (setting [3]) is “A (percent of modification of PIK3CA protein ≥75%)”. In addition, the IC50 in the assay on pAKT in BT474 cells (Compounds 10-999) lay within 0.1 to 1 µM.
Turning to `C=CC(=O)N1CC[C@@H](n2cc(-c3nc(-c4cnnc(C)c4)c4ccsc4c3-c3c(F)cc(F)cc3OC(C)C)cn2)C1` [Compound 391], the “% of modification” value in assay [1] (setting [3]) is listed as “A (percent of modification of PIK3CA protein ≥75%)”. Besides, in the assay with pAKT in BT474 cells (Compounds 10-999), the IC50 was < 0.1 µM.
Take `C=CC(=O)N1CCc2ccc(-c3nc(-c4cnc5c(c4)CNC(=O)C5)c4ccsc4c3-c3c(F)cc(F)cc3OC(C)C)cc2C1` [Compound 499]: the “% of modification” value in assay [1] (setting [3]) is recorded as “A (percent of modification of PIK3CA protein ≥75%)”. Further, the IC50 with pAKT in BT474 cells (Compounds 10-999) is < 0.1 µM.
In the same order, the values of `C=CC(=O)N1CC[C@H](n2cc(-c3nc(-c4cnn(C)c4)c4ccsc4c3-c3c(F)cc(F)cc3OC(C)C)cn2)C1` [Compound 358] are “A (percent of modification of PIK3CA protein ≥75%)” and 0.1 to 1 µM.
As to `C=CC(=O)N1CCn2nc(-c3nc(-c4ccc5c(cnn5C)c4F)c4ccsc4c3-c3c(F)cc(F)cc3OCCO)cc2[C@H]1C` (single isomer, unassigned) [Compound 1145], the “% of modification” value in assay [1] (setting [2]) is listed as “A (percent of modification of PIK3CA protein ≥75%)”. Besides, in the assay with pAKT in BT474 cells (Compounds 1000-1279), the IC50 was < 0.1 µM.
With `C=CC(=O)N1CCn2nc(-c3nc(-c4cnc5c(c4)CN(CCCF)CC5)c4ccsc4c3-c3c(F)cc(F)cc3OCCOC)cc2C1C` (stereo not shown) [Compound 1158], the “% of modification” value in assay [1] (setting [2]) is given as “A (percent of modification of PIK3CA protein ≥75%)”. In addition, in the assay with pAKT in BT474 cells (Compounds 1000-1279), the IC50 was < 0.1 µM.
In the case of `C=CC(=O)N1CCn2nc(-c3nc(-c4ccc5nn(C)cc5c4)c4ccsc4c3-c3c(F)cc(F)cc3OC[C@@H](C)O)cc2[C@H]1C` [Compound 760], the “% of modification” value in assay [1] (setting [3]) is listed as “A (percent of modification of PIK3CA protein ≥75%)”. In addition, the half-inhibitory concentration (IC50) in the assay on pAKT in BT474 cells (Compounds 10-999) is < 0.1 µM.
`C=CC(=O)N1CCn2nc(-c3nc(-c4ccc(=O)n(C)c4)cnc3-c3ccc(F)cc3OC(C)C)cc2C1` [Compound 273, 5-[5-(4-fluoro-2-isopropoxy-phenyl)-6-(5-prop-2-enoyl-6,7-dihydro-4H-pyrazolo[1,5-a]pyrazin-2-yl)pyrazin-2-yl]-1-methyl-pyridin-2-one]: the “% of modification” value in assay [1] (setting [3]) was “C (25%≤percent of modification <50%)”. Further, the IC50 in the assay on pAKT in BT474 cells (setting [4]) was > 3 µM.
As for `C=CC(=O)N1CC(n2cc(-c3nc(N4CCC5(CC4)CNC5)c4ccsc4c3-c3ccc(F)cc3OCCOC)cn2)C1` [Compound 98], the “% of modification” value in assay [1] (setting [3]) is given as “A (percent of modification of PIK3CA protein ≥75%)”. Moreover, the IC50 with pAKT in BT474 cells (Compounds 10-999) lay in the range of 1 to 3 µM.
`C=CC(=O)N1Cc2cc(-c3nc(-c4cn(C)cn4)c4ccsc4c3-c3c(F)cc(F)cc3OCCO)nn2[C@@H](C)C1` [Compound 819]: in assay [1] (setting [3]), the “% of modification” value is reported as “A (percent of modification of PIK3CA protein ≥75%)”. For the same compound, the IC50 in the assay on pAKT in BT474 cells (Compounds 10-999) is < 0.1 µM.
`C=CC(=O)N1CCc2ccc(-c3nc(-c4ccc5c(c4)C(=O)NC5)c4ccsc4c3-c3c(F)cc(F)cc3OCCOC)cc2C1` [Compound 1067]: in assay [1] (setting [2]), the “% of modification” value is given as “D (percent of modification <25%)”. For the same compound, in the assay on pAKT in BT474 cells (Compounds 1000-1279), the IC50 was > 1 µM.
Consider `C=CC(=O)N1CCn2nc(-c3nc(-c4ccc5c(c4)CCN(C)C5)c4ccsc4c3-c3c(F)cc(F)cc3OC[C@@H](C)O)cc2[C@H]1C` [Compound 721], for which, in assay [1] (setting [3]), the “% of modification” value was “A (percent of modification of PIK3CA protein ≥75%)”. The IC50 in the assay with pAKT in BT474 cells (Compounds 10-999) is < 0.1 µM.
Turning to `C=CC(=O)N1Cc2cc(-c3nc(-c4ccc5c(cnn5C)c4)c4ccsc4c3-c3c(F)cc(F)cc3OC[C@@H](C)O)nn2C[C@H]1C` [Compound 725], in assay [1] (setting [3]), the “% of modification” value is listed as “A (percent of modification of PIK3CA protein ≥75%)”. For the same compound, in the assay with pAKT in BT474 cells (Compounds 10-999), the IC50 was < 0.1 µM.
Consider `C=CC(=O)N1Cc2cc(-c3nc(-c4cnn(C(C)C)c4)c4ccsc4c3-c3c(F)cc(F)cc3OC[C@@H](C)O)nn2C[C@H]1C` [Compound 726], for which, in assay [1] (setting [3]), the “% of modification” value was “A (percent of modification of PIK3CA protein ≥75%)”. Besides, in the assay with pAKT in BT474 cells (Compounds 10-999), the IC50 was < 0.1 µM.
On to `C=CC(=O)N1CCn2nc(-c3nc(-c4cnc5c(c4)CN(CC(F)F)CC5)c4ccsc4c3-c3c(F)cc(F)cc3OCCOC)cc2C1C` (stereo not shown) [Compound 1081], for which the “% of modification” value in assay [1] (setting [2]) was “A (percent of modification of PIK3CA protein ≥75%)”. Also, in the assay on pAKT in BT474 cells (Compounds 1000-1279), the IC50 is < 0.1 µM.
`C=CC(=O)N1CCn2nc(-c3nc(-c4ccc5c(c4)C(=O)NC5)c4ccsc4c3-c3c(F)cc(F)cc3OCC(C)O)cc2C1C` (stereo not shown) [Compound 879]: in assay [1] (setting [2]), the “% of modification” value was “A (percent of modification of PIK3CA protein ≥75%)”. Further, the IC50 in the assay with pAKT in BT474 cells (Compounds 10-999) was < 0.1 µM.
As to `C=CC(=O)N1CCc2ncc(-c3nc(-c4ccc(=O)n(C)c4)c4ccsc4c3-c3c(F)cc(F)cc3OCCOC)cc2C1` [Compound 375], the “% of modification” value in assay [1] (setting [3]) is listed as “A (percent of modification of PIK3CA protein ≥75%)”. Moreover, the IC50 with pAKT in BT474 cells (Compounds 10-999) is < 0.1 µM.
In the same order, the values of `C=CC(=O)N1Cc2cc(-c3nc(-c4cnc5c(c4)CN(C)C5=O)c4ccsc4c3-c3c(F)cc(F)cc3OCCOC)nn2[C@@H](C)C1` [Compound 506] are “A (percent of modification of PIK3CA protein ≥75%)” and < 0.1 µM.
Take `C=CC(=O)N1CCc2ncc(-c3nc(-c4ccc(=O)n(C)c4)c4ccsc4c3-c3c(F)cc(F)cc3OC(C)C)cc2C1` [Compound 330]: in assay [1] (setting [3]), the “% of modification” value is “A (percent of modification of PIK3CA protein ≥75%)”. Further, in the assay on pAKT in BT474 cells (Compounds 10-999), the IC50 is < 0.1 µM.
`C=CC(=O)N1CCc2ncc(-c3nc(-c4ccc5c(c4)CNC(=O)C5)c4ccsc4c3-c3c(F)cc(F)cc3OCCOC)cc2C1` [Compound 963]: the “% of modification” value in assay [1] (setting [2]) is “A (percent of modification of PIK3CA protein ≥75%)”. In addition, the IC50 in the assay on pAKT in BT474 cells (Compounds 10-999) is < 0.1 µM.
Turning to `C=CC(=O)N1Cc2cc(-c3nc(-c4ccc5nncn5c4)c4ccsc4c3-c3c(F)cc(F)cc3OCCOC)nn2[C@@H](C)C1` [Compound 693], in assay [1] (setting [3]), the “% of modification” value was “A (percent of modification of PIK3CA protein ≥75%)”. Also, the IC50 in the assay on pAKT in BT474 cells (Compounds 10-999) was < 0.1 µM.
